In brackets after ≈: the same amount, converted by molar mass. Structures can show the parent of a compound that is named as a salt. Where two headings read alike, the source gives them in different places.

The EC50 is the concentration at which the effect is half-maximal.

One series concerns L. amazonensis. The arrangement: method as in ref 41 = [41]; 41. Monzote L. Córdova W.H.P. García M. Piñón A. Setzer W.N. In-vitro and In-vivo Activities of Phenolic Compounds Against Cutaneous Leishmaniasis Rec. Nat. Prod. 2016 10 269 276. Conditions: cited from earlier work.
Series [1] relates to Plasmodium falciparum 3D7. Description: In vitro antiplasmodial activity (LDH, Malstat). It counts as cell-based. Conditions: for EC50: Plasmodium falciparum. On the procedure:
Cultures of asynchronous P. falciparum 3D7 strains were adjusted for 0.5% parasitemia and 1% hematocrit in RPMI medium enriched with 3% lipid-rich bovine serum albumin—Albumax II. […] The plates were incubated for 48 h at 37 °C in an atmosphere of N2 (90%), CO2 (5%) and O2 (5%). After incubation, the parasites were harvested and subjected to three 20-min freeze-thaw cycles. At the same time, 100 µL of Malstat reagent (400 µL of Triton X-100 in 80 mL of deionized water, 4 g of L-lactate, 1.32 g of Tris buffer, and 0.022 g of adenine acetylpyridine dinucleotide in 200 mL of deionized water; pH 9.0), and […] of NBT/PES solution (0.16 g of nitroblue-tetrazolium salt, and 0.08 g of phenazine sulfate in 100 mL of deionized water) were added to each well of an additional 96-well plate. After freezing and thawing cycles, the culture in each of the wells on the first plate was re-suspended by pipetting, and 15 µL was removed from each well and added to the corresponding well on the additional plate (containing the Malstat and NBT/PES reagents). After one hour of incubation in the dark, the color development of the lactate dehidrogenase (LDH) reaction was read on a spectrofluorometer (Varioskan, Thermo, Waltham, MA, USA) at 650 nm. The color intensity in each experimental condition was recorded in fluorescent units (F.U). Non-specific fluorescence was corrected by subtracting F.U. from the blanks. The entire experiment was performed in triplicate in at least two independent experiments. Chloroquine (QC) was used as a positive control and the culture medium was used as a negative control.
The antiplasmodial activity of each compound was evaluated through reduction in parasite growth, calculated according to Equation (2):(2) % parasite inhibition=100−F.U exposed parasites÷F.U non exposed parasites × 100
(§1) Data for percentages of parasite reduction or inhibition were used to calculate the EC50 using Probit linear regression modeling. […] The selectivity index (SI) was calculated dividing cytotoxic activity by anti-parasitic activity using the following formula: SI = CL50 ÷ CE50.

The subject of series [2] is Leishmania braziliensis amastigotes. Kind of series: In vitro antileishmanial activity, intracellular amastigotes (EGFP, flow cytometry). Conditions: intracellular amastigotes in U-937 cells, 72 h, mean ± SD. It is filed as cell-based. How it is done:
The activities of the derivatives in L. braziliensis intracellular amastigotes, transfected with the green fluorescent protein gene (MHOM/CO/88/UA301-EGFP) were evaluated. Initially, human U-937 cells at a density of 3 × 10^5 cells/mL in RPMI 1640 and 0.1 μg/mL PMA (phorbol-12-myristate-13-acetate) were dispensed in a 24-well microplate and incubated at 37 °C, and 5% CO2. At 72 h of incubation, the cells were infected with growing (stationary phase) promastigotes; 15 parasites per cell. The plates were incubated at 34 °C and 5% CO2 for 3 h and the cells then washed twice with phosphate buffer solution (PBS) to eliminate non-internalized parasites. Fresh RPMI-1640 was added to each well (1 mL) and the plates were incubated again to complete the infection. […] The cells were then removed from the bottom plate with a trypsin/EDTA solution (250 mg), and centrifuged at 1100 rpm for 10 min at 4 °C; the supernatant was discarded and the cells were washed with 1 mL of cold PBS and centrifuged twice at 1100 rpm for 10 min at 4 °C. After this final wash, the supernatant was discarded and the cells were suspended in 500 μL of PBS.
The cells were run in a flow cytometer (Cytomics FC 500MPL), reading at 488 nm (exciting) and 525 nm (emitting) over an argon laser, and counting 10,000 events. Infected cells were determined according to green fluorescence events (parasites). Infected cells exposed to the control drug (amphotericin B) were used as antileishmanial activity controls (positive control). Infected cells incubated in the absence of any compound or drug were used as infection controls (negative control). Non-specific fluorescence was corrected by subtracting fluorescence from unstained cells. All determinations were performed in triplicate, in at least two independent experiments.
as §1

A further series is described as follows: in vitro. How it is done:
The compounds were analyzed for viability of the human pro-monocytic cell line U-937 (ATCC CRL- 1593.2TM) using an MTT (3-(4,5-dimethylthiazol-2-yl)-2,5- diphenyltetrazolium bromide) assay based on a previously described methodology, assessing cytotoxic activity. The resulting compounds were determined by measuring mitochondrial dehydrogenase activity, adding […] of MTT solution (0.5 mg/mL) and incubation at 37 °C for 3 h. Cell viability was defined from the quantity of formazan produced and the intensity of color (absorbance) registered through optical density (O.D.) obtained at 570 nm in a (VarioskanTM Flash Multimode Reader—Thermo Scientific, Waltham, MA, USA) spectrophotometer. As a negative control, isolated cells were cultured (without the compounds) to observe viability. […] We performed two independent tests with each concentration, in triplicate.
Cytotoxicity was determined according to the viability and mortality percentages obtained in each experimental condition (synthesized compounds, amphotericin B, benznidazole, chloroquine, and culture medium). Viability percentages were first calculated using Equation (1). (1) % Viability=O.D exposed cells÷O.D Control cells × 100 Then, cell growth inhibition percentage was calculated as 100 - % viability.
The cell growth inhibition percentages were used to calculate median lethal concentrations (LC50) using Probit analysis.

The next series concerns Leishmania amazonensis. The arrangement: method as in Lima et al. (2016) 46. Conditions: ref Lima et al. (2016) 46; cited from earlier work.
The subject of another series is Trypanosoma brucei. The arrangement: method as in Steverding et al. (2016) 51. Conditions: ref Steverding et al. (2016) 51; cited from earlier work.
The next series concerns P. falciparum. Also on record: method as in ref 42 = [42]; 42. Sudi S. Hassan W.R.M. Ali A.H. Basir R. Embi N. Sidek H.M. A derivative of cinnamic acid, methyl-4-hydroxycinnamate modulates inflammatory cytokine levels in malaria-infected mice through inhibiti. Conditions: cited from earlier work.
[3] abbreviates: 3D7, 48 h, read-out: Plasmodium falciparum EC50, 3D7 strain, 48 h, mean ± SD.

As to `O=C(O)C=Cc1ccc(O)cc1` [p-Coumaric acid], the “antiparasitic activity against L. amazonensis” value in the series on L. amazonensis was “presents antiparasitic activity”.
For `CCN(CC)CCCC(C)Nc1ccnc2cc(Cl)ccc12` (stereo not drawn) [CQ, chloroquine diphosphate salt, reference compound], the EC50 in series [1] (3D7, 48 h, read-out: Plasmodium falciparum EC50) is 3.35 ± 0.39 µg/mL.
Take `CCCCOC(=O)/C=C/c1ccc(O)cc1` [Compound 6, butyl p-coumarate]: the EC50 in series [1] (setting [3]) worked out at 199 ± 7.9 µg/mL (≈ 903 µM); in series [2] it was 323 ± 50 µg/mL (≈ 1470 µM). The compound also registered a CC50 in the series “in vitro” of 30.9 ± 6.32 µg/mL (≈ 140 µM).
On to `CCCCCOC(=O)/C=C/c1ccc(O)cc1` [Compound 7, pentyl p-coumarate], for which, in series [1] (3D7 strain, 48 h, mean ± SD), the “Plasmodium falciparum EC50” value was 95.48 ± 1.84 µg/mL. For the same compound, the results for the concentration giving a half-maximal response (EC50) in series [1] (setting [3]) and in series [2] were 156 ± 8.2 µg/mL (≈ 667 µM) and 32 ± 5.05 µg/mL (≈ 137 µM), respectively. Further, the CC50 in “in vitro” worked out at 16.1 ± 3.81 µg/mL (≈ 68.7 µM).
As for `CCCCCCOC(=O)/C=C/c1ccc(O)cc1` [Compound 9, hexyl p-coumarate], the EC50 in series [1] (setting [3]) is 206 ± 46.4 µg/mL (≈ 831 µM); in series [2], 4.14 ± 0.55 µg/mL (≈ 16.7 µM). In “in vitro”, the CC50 worked out at 11.2 ± 0.86 µg/mL (≈ 45.3 µM).
For `C[C@@H]1[C@H](O)[C@@H](C)/C=C/C=C/C=C/C=C/C=C/C=C/C=C/[C@H](O[C@@H]2O[C@H](C)[C@@H](O)[C@H](N)[C@@H]2O)C[C@@H]2O[C@](O)(C[C@@H](O)C[C@@H](O)[C@H](O)CC[C@@H](O)C[C@@H](O)CC(=O)O[C@H]1C)C[C@H](O)[C@H]2C(=O)O` [AMB, amphotericin B, reference compound], the EC50 in series [2] turned out to be 0.3 ± 0.07 µg/mL (≈ 0.325 µM). This compound also displayed a CC50 in “in vitro” of 38.4 ± 6.3 µg/mL (≈ 41.6 µM).
With `CCOC(=O)/C=C/c1ccc(O)cc1` [Compound 2, ethyl p-coumarate], the EC50 is 110 ± 30.8 µg/mL (≈ 574 µM) in series [1] (setting [3]) and 4.91 ± 0.64 µg/mL (≈ 25.5 µM) in series [2]. The CC50 in the series “in vitro” came out at 1.06 ± 1.08 µg/mL (≈ 5.51 µM).
Taken in the same sequence, the figures for `CCCCCCCCCCCCOC(=O)/C=C/c1ccc(O)cc1` [Compound 10, dodecyl p-coumarate] were 81.2 ± 8.54 µg/mL (≈ 244 µM), 16.3 ± 0.49 µg/mL (≈ 49.1 µM) and 15.4 ± 1.84 µg/mL (≈ 46.4 µM).
In the case of `CCOC(=O)/C=C/c1ccc(O)c(O)c1` [ethyl caffeate], the “activity against Leishmania amazonensis” value in the series on Leishmania amazonensis is given as “no activity”.
For `Cc1ccc(COC(=O)/C=C/c2ccc(O)cc2)cc1` [Compound 11, 4-methylbenzyl p-coumarate], the EC50 in series [1] (setting [3]) worked out at 84 ± 15.3 µg/mL (≈ 313 µM); in series [2], 5.69 ± 0.3 µg/mL (≈ 21.2 µM). Besides, the CC50 in “in vitro” was found to be 20.8 ± 3.47 µg/mL (≈ 77.6 µM).
For the compound `CC(C)CCOC(=O)/C=C/c1ccc(O)c(O)c1` [isopentyl caffeate], the “antiparasitic activity against Trypanosoma brucei” value in the series on Trypanosoma brucei is “antiparasitic activity”.
For `CC(C)c1ccc(COC(=O)/C=C/c2ccc(O)cc2)cc1` [Compound 12, 4-isopropylbenzyl p-coumarate], the EC50 was found to be 93.7 ± 14.2 µg/mL (≈ 316 µM) in series [1] (setting [3]) and 11.2 ± 0.2 µg/mL (≈ 37.8 µM) in series [2]. This compound also came in with a CC50 in the series “in vitro” of 35.2 ± 13.9 µg/mL (≈ 119 µM).
Taken in the same sequence, the figures for `CCCOC(=O)/C=C/c1ccc(O)cc1` [Compound 3, propyl p-coumarate] were 139 ± 4.07 µg/mL (≈ 674 µM), 6.3 ± 1.14 µg/mL (≈ 30.5 µM) and 11.9 ± 0.8 µg/mL (≈ 57.7 µM).
On to `COCCOC(=O)/C=C/c1ccc(O)cc1` [Compound 5, methoxy-ethyl p-coumarate], for which the results for the EC50 in series [1] (setting [3]) and in series [2] were 98.7 ± 17.7 µg/mL (≈ 444 µM) and 87 ± 18.1 µg/mL (≈ 391 µM), respectively. Further, the CC50 in the series “in vitro” came out at 127 ± 16.5 µg/mL (≈ 570 µM).
As to `CC(C)CCOC(=O)/C=C/c1ccc(O)cc1` [Compound 8, isopentyl p-coumarate], in series [1] (3D7 strain, 48 h, mean ± SD), the “Plasmodium falciparum EC50” value was 156.37 ± 8.2 µg/mL. For the same compound, the EC50 in series [1] (setting [3]) was 95.5 ± 1.84 µg/mL (≈ 408 µM); in series [2], 6.02 ± 0.22 µg/mL (≈ 25.7 µM). In the series “in vitro”, this compound displayed a CC50 of 19.6 ± 1.76 µg/mL (≈ 83.6 µM).
As for `CC(C)OC(=O)/C=C/c1ccc(O)cc1` [Compound 4, isopropyl p-coumarate], the EC50 in series [1] (setting [3]) worked out at 106 ± 9.97 µg/mL (≈ 514 µM); in series [2] it was 28.33 ± 0.27 µg/mL (≈ 137 µM). The CC50 in the series “in vitro” was 96.2 ± 18.9 µg/mL (≈ 467 µM).
Turning to `COC(=O)/C=C/c1ccc(O)cc1` [Compound 1, methyl p-coumarate], the EC50 stood at 64.6 ± 2.89 µg/mL (≈ 362 µM) in series [1] (3D7 strain, 48 h, mean ± SD, read-out: Plasmodium falciparum EC50) and 8.28 ± 0.14 µg/mL (≈ 46.5 µM) in series [2]. Also, the CC50 in “in vitro” is 6.26 ± 0.03 µg/mL (≈ 35.1 µM). The “activity against P. falciparum” value with P. falciparum is given as “presents activity”.

These data come from paper PMC7397144, “Alkyl and Aryl Derivatives Based on p-Coumaric Acid Modification and Inhibitory Action against Leishmania braziliensis and Plasmodium falciparum” (Molecules, 2020).
